The target in experiment [1] is EGFR L858R/T790M/C797S (Homo sapiens, UniProt P00533, C797S/L858R/T790M). In words: Biochemical EGFR kinase assay (Lance Ultra TR-FRET), triple mutant L858R/T790M/C797S. Put shortly:
(§1)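 In this biochemical assay, phosphorylation after a one-hour room-temperature reaction was detected with europium-labelled anti-phosphopeptide antibody at 2 nM final concentration.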
On the technique in general: Time-resolved FRET reads energy transfer from a long-lived donor to a nearby acceptor.

The target of experiment [2] is EGFR L858R/C797S (Homo sapiens, UniProt P00533, C797S/L858R). Briefly: Biochemical EGFR kinase assay (Lance Ultra TR-FRET), double mutant L858R/C797S. The method in brief: as §1
In experiment [3] the target is EGFR wildtype (Homo sapiens, UniProt P00533). In words: Biochemical EGFR kinase assay (Lance Ultra TR-FRET), wildtype. The method in brief: as §1
Experiment [4] concerns the target EGFR del19/C797S (Homo sapiens, UniProt P00533, C797S/DEL746-750). Briefly: Biochemical EGFR kinase assay (Lance Ultra TR-FRET), double mutant del19/C797S. The method in brief: as §1
In experiment [5] the target is EGFR del19/T790M/C797S (Homo sapiens, UniProt P00533, C797S/DEL746-750/T790M). Briefly: Biochemical EGFR kinase assay (Lance Ultra TR-FRET), triple mutant del19/T790M/C797S. The method in brief: as §1
Where [6] appears, read: ATP at Km, read-out: IC50 L858R/T790M/C797S, Km ATP.
[7] abbreviates: IC50 L858R/T790M/C797S, 100 μM ATP.
[8] abbreviates: ATP at Km, read-out: IC50 L858R/C797S, Km ATP.
The mark [9] stands for this setting: ATP at Km, read-out: IC50 WT, Km ATP.
Where [10] appears, read: ATP at Km, read-out: IC50 del19/C797S, Km ATP.
Where [11] appears, read: ATP at Km, read-out: IC50 del19/T790M/C797S, Km ATP.
[12] abbreviates: IC50 del19/T790M/C797S, 100 μM ATP.

Like-named read-outs stand apart in the source and are kept apart here. A value given as a limit tells only on which side of the number the result lay.

Data on 10 molecules can be found in patent publication US12258328B2, “6-membered heteroaryl-containing aminopyridine compounds as EGFR inhibitors” (YUHAN CORPORATION, priority 2021, dated 2025).

EGFR del19/C797S, sequence (P00533 with tags, fused parts or gaps DEL746-750/C797S): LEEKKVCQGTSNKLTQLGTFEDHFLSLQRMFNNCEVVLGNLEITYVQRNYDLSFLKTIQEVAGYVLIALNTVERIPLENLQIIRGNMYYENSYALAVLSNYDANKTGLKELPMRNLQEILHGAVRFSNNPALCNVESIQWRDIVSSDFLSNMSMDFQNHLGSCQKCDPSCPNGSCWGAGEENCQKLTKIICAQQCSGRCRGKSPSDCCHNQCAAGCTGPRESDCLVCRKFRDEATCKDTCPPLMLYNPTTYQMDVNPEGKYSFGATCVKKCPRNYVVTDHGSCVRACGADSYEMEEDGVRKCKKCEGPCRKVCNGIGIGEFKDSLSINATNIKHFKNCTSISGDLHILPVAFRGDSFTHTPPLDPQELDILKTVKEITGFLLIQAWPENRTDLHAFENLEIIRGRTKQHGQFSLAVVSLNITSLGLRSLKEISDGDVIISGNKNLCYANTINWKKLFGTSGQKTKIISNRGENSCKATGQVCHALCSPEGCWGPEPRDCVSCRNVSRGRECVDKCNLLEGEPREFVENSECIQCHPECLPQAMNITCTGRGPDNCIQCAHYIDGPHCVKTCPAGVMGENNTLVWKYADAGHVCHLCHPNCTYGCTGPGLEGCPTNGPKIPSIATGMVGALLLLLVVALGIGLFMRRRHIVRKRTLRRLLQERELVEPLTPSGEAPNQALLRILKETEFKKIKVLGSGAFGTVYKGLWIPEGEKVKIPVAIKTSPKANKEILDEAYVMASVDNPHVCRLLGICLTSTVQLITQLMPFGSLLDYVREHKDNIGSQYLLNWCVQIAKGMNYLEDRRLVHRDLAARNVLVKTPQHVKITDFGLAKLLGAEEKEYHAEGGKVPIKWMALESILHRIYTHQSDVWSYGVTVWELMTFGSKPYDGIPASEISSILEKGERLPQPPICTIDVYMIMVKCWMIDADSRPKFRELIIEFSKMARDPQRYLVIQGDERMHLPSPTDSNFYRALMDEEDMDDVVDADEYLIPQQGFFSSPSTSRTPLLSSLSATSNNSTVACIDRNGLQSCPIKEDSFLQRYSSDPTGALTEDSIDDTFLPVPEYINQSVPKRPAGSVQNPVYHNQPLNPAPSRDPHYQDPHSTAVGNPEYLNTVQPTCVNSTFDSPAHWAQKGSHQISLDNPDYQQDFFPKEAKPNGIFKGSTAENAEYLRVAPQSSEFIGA
EGFR L858R/C797S, sequence (P00533 25-1210 C797S/L858R): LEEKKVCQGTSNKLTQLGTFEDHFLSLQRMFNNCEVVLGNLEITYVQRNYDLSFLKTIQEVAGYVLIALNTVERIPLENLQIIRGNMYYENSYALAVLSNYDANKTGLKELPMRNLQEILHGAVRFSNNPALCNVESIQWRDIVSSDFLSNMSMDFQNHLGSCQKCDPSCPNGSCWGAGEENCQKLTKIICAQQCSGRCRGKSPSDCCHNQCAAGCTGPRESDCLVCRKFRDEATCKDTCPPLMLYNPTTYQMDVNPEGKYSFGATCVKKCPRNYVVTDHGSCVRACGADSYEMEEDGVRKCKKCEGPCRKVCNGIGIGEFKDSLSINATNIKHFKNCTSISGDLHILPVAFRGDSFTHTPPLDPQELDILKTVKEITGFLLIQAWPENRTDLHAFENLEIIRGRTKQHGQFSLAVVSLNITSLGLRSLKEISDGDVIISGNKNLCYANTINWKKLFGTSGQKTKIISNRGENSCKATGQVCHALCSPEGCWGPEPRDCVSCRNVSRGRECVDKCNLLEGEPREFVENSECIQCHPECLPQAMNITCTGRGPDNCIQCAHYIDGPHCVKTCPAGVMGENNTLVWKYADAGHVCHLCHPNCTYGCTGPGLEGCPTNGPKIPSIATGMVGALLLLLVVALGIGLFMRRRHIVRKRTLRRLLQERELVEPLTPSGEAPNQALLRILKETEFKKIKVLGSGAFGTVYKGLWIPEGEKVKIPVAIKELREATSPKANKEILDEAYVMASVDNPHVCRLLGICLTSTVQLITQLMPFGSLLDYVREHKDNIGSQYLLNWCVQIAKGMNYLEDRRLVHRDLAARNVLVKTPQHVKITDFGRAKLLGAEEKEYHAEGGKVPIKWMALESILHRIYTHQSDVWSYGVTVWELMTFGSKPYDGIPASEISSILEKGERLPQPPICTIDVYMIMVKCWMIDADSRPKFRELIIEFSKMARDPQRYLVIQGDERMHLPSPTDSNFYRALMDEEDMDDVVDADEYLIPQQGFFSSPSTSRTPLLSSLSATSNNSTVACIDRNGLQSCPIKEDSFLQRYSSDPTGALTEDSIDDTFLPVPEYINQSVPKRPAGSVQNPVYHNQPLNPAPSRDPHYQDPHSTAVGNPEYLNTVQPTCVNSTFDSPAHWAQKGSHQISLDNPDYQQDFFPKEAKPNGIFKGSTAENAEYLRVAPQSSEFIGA
EGFR del19/T790M/C797S, sequence (P00533 with tags, fused parts or gaps DEL746-750/T790M/C797S): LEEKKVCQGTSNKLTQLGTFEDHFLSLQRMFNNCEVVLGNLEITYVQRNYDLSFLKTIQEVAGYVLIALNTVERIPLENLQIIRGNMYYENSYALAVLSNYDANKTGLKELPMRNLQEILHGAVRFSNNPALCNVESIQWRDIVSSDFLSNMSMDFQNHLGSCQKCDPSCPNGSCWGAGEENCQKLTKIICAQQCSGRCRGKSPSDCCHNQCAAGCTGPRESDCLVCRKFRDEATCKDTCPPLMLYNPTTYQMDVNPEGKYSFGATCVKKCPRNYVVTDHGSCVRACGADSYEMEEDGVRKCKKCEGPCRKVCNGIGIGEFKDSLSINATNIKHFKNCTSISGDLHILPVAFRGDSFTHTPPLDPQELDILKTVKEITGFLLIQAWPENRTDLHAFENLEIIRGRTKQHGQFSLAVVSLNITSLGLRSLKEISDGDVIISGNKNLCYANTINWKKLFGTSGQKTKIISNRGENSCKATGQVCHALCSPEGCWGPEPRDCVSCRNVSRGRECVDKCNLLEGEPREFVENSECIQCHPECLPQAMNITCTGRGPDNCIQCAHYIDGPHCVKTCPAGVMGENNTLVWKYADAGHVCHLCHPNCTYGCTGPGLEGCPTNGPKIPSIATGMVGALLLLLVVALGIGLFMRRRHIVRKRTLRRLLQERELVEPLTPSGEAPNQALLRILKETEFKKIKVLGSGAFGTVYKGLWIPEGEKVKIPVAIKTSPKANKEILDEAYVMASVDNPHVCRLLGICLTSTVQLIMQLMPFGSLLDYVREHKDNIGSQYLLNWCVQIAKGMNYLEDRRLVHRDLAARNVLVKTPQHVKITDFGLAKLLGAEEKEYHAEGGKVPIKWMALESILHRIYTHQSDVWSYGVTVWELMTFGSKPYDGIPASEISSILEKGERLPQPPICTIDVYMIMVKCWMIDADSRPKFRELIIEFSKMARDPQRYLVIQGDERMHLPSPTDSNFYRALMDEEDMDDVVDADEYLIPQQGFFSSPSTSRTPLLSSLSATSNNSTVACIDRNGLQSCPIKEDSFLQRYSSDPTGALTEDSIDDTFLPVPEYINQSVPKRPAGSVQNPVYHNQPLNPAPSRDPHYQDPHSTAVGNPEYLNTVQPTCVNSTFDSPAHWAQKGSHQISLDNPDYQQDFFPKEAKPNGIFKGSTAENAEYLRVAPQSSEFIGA
EGFR wildtype, sequence (P00533 25-1210): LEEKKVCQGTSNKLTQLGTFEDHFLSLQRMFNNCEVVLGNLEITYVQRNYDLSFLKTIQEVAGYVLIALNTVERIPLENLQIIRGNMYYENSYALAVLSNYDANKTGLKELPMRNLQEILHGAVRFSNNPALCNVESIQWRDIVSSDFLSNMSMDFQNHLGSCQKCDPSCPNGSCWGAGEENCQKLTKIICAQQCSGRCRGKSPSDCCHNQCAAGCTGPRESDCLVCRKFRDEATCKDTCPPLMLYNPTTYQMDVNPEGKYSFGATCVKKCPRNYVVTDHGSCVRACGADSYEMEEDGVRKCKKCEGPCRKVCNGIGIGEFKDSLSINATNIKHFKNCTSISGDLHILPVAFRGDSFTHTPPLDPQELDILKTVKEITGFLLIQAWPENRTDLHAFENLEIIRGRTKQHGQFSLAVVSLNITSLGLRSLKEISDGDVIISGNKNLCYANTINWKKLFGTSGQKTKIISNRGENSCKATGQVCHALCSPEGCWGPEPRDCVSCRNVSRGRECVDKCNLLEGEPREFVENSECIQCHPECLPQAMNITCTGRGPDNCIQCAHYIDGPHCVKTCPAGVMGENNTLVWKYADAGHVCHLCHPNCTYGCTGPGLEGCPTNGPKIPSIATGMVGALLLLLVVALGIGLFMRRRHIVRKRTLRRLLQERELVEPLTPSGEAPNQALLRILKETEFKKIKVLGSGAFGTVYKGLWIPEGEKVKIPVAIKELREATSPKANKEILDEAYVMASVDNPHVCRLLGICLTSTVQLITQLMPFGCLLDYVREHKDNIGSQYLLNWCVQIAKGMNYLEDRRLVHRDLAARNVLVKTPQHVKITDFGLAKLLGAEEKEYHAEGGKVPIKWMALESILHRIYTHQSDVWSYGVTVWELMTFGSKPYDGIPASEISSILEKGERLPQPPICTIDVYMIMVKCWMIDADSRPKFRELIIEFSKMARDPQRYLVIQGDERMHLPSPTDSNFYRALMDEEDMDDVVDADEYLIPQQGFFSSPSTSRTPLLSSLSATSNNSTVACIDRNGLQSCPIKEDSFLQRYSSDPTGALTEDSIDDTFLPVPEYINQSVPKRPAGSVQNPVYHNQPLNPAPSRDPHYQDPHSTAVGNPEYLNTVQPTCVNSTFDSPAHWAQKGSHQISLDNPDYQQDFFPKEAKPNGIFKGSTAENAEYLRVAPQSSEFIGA

Take `O=S(=O)(C1CC1)n1cc(-c2nccc(Nc3cc(N[C@H]4CC[C@@H](NCC(F)F)CC4)c(-c4cccc(F)n4)cn3)n2)cn1` [Example 275, N^6′-(2-(1-(Cyclopropylsulfonyl)-1H-pyrazol-4-yl)pyrimidin-4-yl)-N^4′-((1s,4s)-4-((2,2-difluoroethyl)amino)cyclohexyl)-6-fluoro-[2,3′-bipyridine]-4′,6′-diamine]: the IC50 in experiment [1] (setting [6]) is 0.7 nM; in experiment [1] (setting [7]), 1.2 nM; in experiment [2] (setting [8]), 4.1 nM; in experiment [2] (IC50 L858R/C797S, 100 μM ATP), 11.4 nM; in experiment [3] (setting [9]), 18.5 nM; in experiment [3] (IC50 WT, 100 μM ATP) it was over 10000 nM. For the same molecule, the IC50 in experiment [4] (setting [10]) amounted to 2.5 nM; in experiment [4] (IC50 del19/C797S, 100 μM ATP) it was 2.6 nM; in experiment [5] (setting [11]), 0.9 nM; in experiment [5] (setting [12]) it was 1.1 nM.

For `CN(C)CCNc1ccnc(-c2cnc(Nc3ccnc(-c4cnn(S(=O)(=O)C5CC5)c4)n3)cc2N[C@H]2CC[C@@](C)(O)CC2)c1` [Example 276, (1s,4s)-4-((6′-((2-(1-(Cyclopropylsulfonyl)-1H-pyrazol-4-yl)pyrimidin-4-yl)amino)-4-((2-(dimethylamino)ethyl)amino)-[2,3′-bipyridin]-4′-yl)amino)-1-methylcyclohexan-1-ol], the IC50 stood at 0.2 nM in experiment [1] (setting [6]); 0.5 nM in experiment [1] (setting [7]); 0.7 nM in experiment [2] (setting [8]); 2.3 nM in experiment [2] (IC50 L858R/C797S, 100 μM ATP); 2.9 nM in experiment [3] (setting [9]); 2530 nM in experiment [3] (IC50 WT, 100 μM ATP). The IC50 in experiment [4] (setting [10]) is 0.3 nM; in experiment [4] (IC50 del19/C797S, 100 μM ATP), 0.7 nM; in experiment [5] (setting [11]), 0.8 nM; in experiment [5] (setting [12]), 1.1 nM.

With `C[C@]1(O)CC[C@@H](Nc2cc(Nc3ccnc(-c4cnn(S(=O)(=O)C5CC5)c4)n3)ncc2-c2cc(NCCC(F)(F)F)ccn2)CC1` [Example 277, (1s,4s)-4-((6′-((2-(1-(Cyclopropylsulfonyl)-1H-pyrazol-4-yl)pyrimidin-4-yl)amino)-4-((3,3,3-trifluoropropyl)amino)-[2,3′-bipyridin]-4′-yl)amino)-1-methylcyclohexan-1-ol], the IC50 is 1.6 nM in experiment [1] (setting [6]); 2.2 nM in experiment [2] (setting [8]); 11.2 nM in experiment [2] (IC50 L858R/C797S, 100 μM ATP); 9.8 nM in experiment [3] (setting [9]); over 10000 nM in experiment [3] (IC50 WT, 100 μM ATP); 0.9 nM in experiment [4] (setting [10]). In addition, the IC50 in experiment [4] (IC50 del19/C797S, 100 μM ATP) worked out at 3.9 nM; in experiment [5] (setting [11]), 4.4 nM; in experiment [5] (setting [12]), 4.7 nM.

Consider `C[C@]1(O)CC[C@@H](Nc2cc(Nc3ccnc(-c4cnn(S(=O)(=O)C5CC5)c4)n3)ncc2-c2cc(NCCN3CCOCC3)ccn2)CC1` [Example 279, (1s,4s)-4-((6′-((2-(1-(Cyclopropylsulfonyl)-1H-pyrazol-4-yl)pyrimidin-4-yl)amino)-4 ((2-morpholinoethyl)amino)-[2,3′-bipyridin]-4′-yl)amino)-1-methylcyclohexan-1-ol], for which the IC50 in experiment [1] (setting [6]) is 0.6 nM; in experiment [2] (setting [8]), 0.9 nM; in experiment [2] (IC50 L858R/C797S, 100 μM ATP), 6.6 nM; in experiment [3] (setting [9]), 11.9 nM; in experiment [3] (IC50 WT, 100 μM ATP) it was over 10000 nM; in experiment [4] (setting [10]), 1.7 nM. Moreover, the IC50 in experiment [4] (IC50 del19/C797S, 100 μM ATP) amounted to 5 nM; in experiment [5] (setting [11]), 2 nM; in experiment [5] (setting [12]), 2.9 nM.

For the molecule `C[C@]1(O)CC[C@@H](Nc2cc(Nc3ccnc(-c4cnn(S(=O)(=O)C5CC5)c4)n3)ncc2-c2cc(NC3CC(F)(F)C3)ccn2)CC1` [Example 280, (1s,4s)-4-((6′-((2-(1-(Cyclopropylsulfonyl)-1H-pyrazol-4-yl)pyrimidin-4-yl)amino)-4-((3,3-difluorocyclobutyl)amino)-[2,3′-bipyridin]-4′-yl)amino)-1-methylcyclohexan-1-ol], the IC50 in experiment [1] (setting [7]) was 0.5 nM; in experiment [2] (IC50 L858R/C797S, 100 μM ATP) it was 20.3 nM; in experiment [3] (IC50 WT, 100 μM ATP) it was over 10000 nM; in experiment [4] (IC50 del19/C797S, 100 μM ATP) it was 2.7 nM; in experiment [5] (setting [12]), 1 nM.

As for `C[C@]1(O)CC[C@@H](Nc2cc(Nc3ccnc(-c4cnn(S(=O)(=O)C5CC5)c4)n3)ncc2-c2cc(NCCN3CC(F)C3)ccn2)CC1` [Example 281, (1s,4s)-4-((6′-((2-(1-(Cyclopropylsulfonyl)-1H-pyrazol-4-yl)pyrimidin-4-yl)amino)-4-((2-(3-fluoroazetidin-1-yl)ethyl)amino)-[2,3′-bipyridin]-4′-yl)amino)-1-methylcyclohexan-1-ol], the IC50 was 0.2 nM in experiment [1] (setting [7]); 2.1 nM in experiment [2] (IC50 L858R/C797S, 100 μM ATP); 6340 nM in experiment [3] (IC50 WT, 100 μM ATP); 0.6 nM in experiment [4] (IC50 del19/C797S, 100 μM ATP); 0.2 nM in experiment [5] (setting [12]).

As for `C[C@]1(O)CC[C@@H](Nc2cc(Nc3ccnc(-c4cnn(S(=O)(=O)C5CC5)c4)n3)ncc2-c2cc(NCCCO)ccn2)CC1` [Example 282, (1s,4s)-4-((6′-((2-(1-(Cyclopropylsulfonyl)-1H-pyrazol-4-yl)pyrimidin-4-yl)amino)-4-((3-hydroxypropyl)amino)-[2,3′-bipyridin]-4′-yl)amino)-1-methylcyclohexan-1-ol], the IC50 worked out at 0.4 nM in experiment [1] (setting [7]); 7 nM in experiment [2] (IC50 L858R/C797S, 100 μM ATP); 3970 nM in experiment [3] (IC50 WT, 100 μM ATP); 1.4 nM in experiment [4] (IC50 del19/C797S, 100 μM ATP); 0.2 nM in experiment [5] (setting [12]).

As for `CC1(O)CCC(Nc2cc(Nc3ccnc(-c4cnn(S(=O)(=O)C5CC5)c4)n3)ncc2-c2cc(NC3CC(O)C3)ccn2)CC1` (stereo not drawn) [Example 283, (1s,4s)-4-((6′-((2-(1-(Cyclopropylsulfonyl)-1H-pyrazol-4-yl)pyrimidin-4-yl)amino)-4-((3-hydroxycyclobutyl)amino)-[2,3′-bipyridin]-4′-yl)amino)-1-methylcyclohexan-1-ol], the IC50 in experiment [1] (setting [7]) turned out to be 0.4 nM; in experiment [2] (IC50 L858R/C797S, 100 μM ATP), 2.3 nM; in experiment [3] (IC50 WT, 100 μM ATP), 1970 nM; in experiment [4] (IC50 del19/C797S, 100 μM ATP) it was 0.6 nM; in experiment [5] (setting [12]) it was 0.1 nM.

Take `C[C@]1(O)CC[C@@H](Nc2cc(Nc3ccnc(-c4cnn(S(=O)(=O)C5CC5)c4)n3)ncc2-c2ccc(C(=O)N3CCOCC3)cn2)CC1` [Example 284, (6′-((2-(1-(Cyclopropylsulfonyl)-1H-pyrazol-4-yl)pyrimidin-4-yl)amino)-4′-(((1s,4s)-4-hydroxy-4-methylcyclohexyl)amino)-[2,3′-bipyridin]-5-yl)(morpholino)methanone]: the IC50 in experiment [1] (setting [7]) is 0.2 nM; in experiment [2] (IC50 L858R/C797S, 100 μM ATP) it was 0.4 nM; in experiment [3] (IC50 WT, 100 μM ATP), 176 nM; in experiment [4] (IC50 del19/C797S, 100 μM ATP), 0.2 nM; in experiment [5] (setting [12]), 0.1 nM.

Turning to `C[C@]1(O)CC[C@@H](Nc2cc(Nc3ccnc(-c4cnn(S(=O)(=O)C5CC5)c4)n3)ncc2-c2cccc(NCCO)n2)CC1` [Example 285, (1s,4s)-4-((6′-((2-(1-(Cyclopropylsulfonyl)-1H-pyrazol-4-yl)pyrimidin-4-yl)amino)-6-((2-hydroxyethyl)amino)-[2,3′-bipyridin]-4′-yl)amino)-1-methylcyclohexan-1-ol], the IC50 in experiment [1] (setting [7]) is 0.2 nM; in experiment [2] (setting [8]), 0.5 nM; in experiment [2] (IC50 L858R/C797S, 100 μM ATP), 14.1 nM; in experiment [3] (setting [9]), 7.8 nM; in experiment [3] (IC50 WT, 100 μM ATP), 6310 nM; in experiment [4] (setting [10]) it was 0.4 nM. The IC50 amounted to 0.9 nM in experiment [4] (IC50 del19/C797S, 100 μM ATP); 0.1 nM in experiment [5] (setting [11]); 0.2 nM in experiment [5] (setting [12]).
